{
  "source": "ChEMBL document CHEMBL1177723",
  "about": "“Severe acute respiratory syndrome coronavirus papain-like novel protease inhibitors: design, synthesis, protein-ligand X-ray structure and biological evaluation” (J Med Chem, 2010)",
  "key": {"[1]": {"assay": "Inhibition of SARS coronavirus papain-like protease expressed in Escherichia coli", "design": "species or system Severe acute respiratory syndrome-related coronavirus"}, "SARS-CoV": {"system": "SARS-CoV", "assay": "Antiviral activity against SARS coronavirus infected in african green monkey Vero E6 cells assessed as inhibition of viral replication after 48 hrs by luminescence assay", "assay_type": "functional, organism-based, Severe acute respiratory syndrome-related coronavirus"}, "[2]": {"conditions": "Severe acute respiratory syndrome-related coronavirus, Vero, 48 h, read-out: EC50; call rule not given here"}},
  "data": [
    {"smiles": "CC(C)(c1cccc2ccccc12)N1CCC(C(=O)NCc2ccc3c(c2)OCO3)CC1", "values": [
      {"measurement": "IC50", "setting": "[1]", "value": "> 200", "unit": "µM"}
    ]},
    {"smiles": "COc1ccccc1CNC(=O)C1CCN([C@H](C)c2cccc3ccccc23)CC1", "values": [
      {"measurement": "IC50", "setting": "[1]", "value": 1.21, "unit": "µM"},
      {"measurement": "EC50", "setting": "SARS-CoV; [2]", "value": 11.6, "unit": "µM"}
    ]},
    {"smiles": "C[C@@H](c1cccc2ccccc12)N1CCC(C(=O)NCc2ccc3c(c2)OCO3)CC1", "values": [
      {"measurement": "IC50", "setting": "[1]", "value": 0.56, "unit": "µM"},
      {"measurement": "EC50", "setting": "SARS-CoV; [2]", "value": 9.1, "unit": "µM"}
    ]},
    {"smiles": "O=C(NCc1ccc2c(c1)OCO2)C1CCN(Cc2ccc3ccccc3c2)CC1", "values": [
      {"measurement": "IC50", "setting": "[1]", "value": 100, "unit": "µM"}
    ]},
    {"smiles": "O=C(NCc1ccc2c(c1)OCO2)C1CCN(Cc2cccc3ccccc23)CC1", "values": [
      {"measurement": "IC50", "setting": "[1]", "value": 45, "unit": "µM"}
    ]},
    {"smiles": "COc1cccc(CNC(=O)C2CCN([C@H](C)c3cccc4ccccc34)CC2)c1", "values": [
      {"measurement": "IC50", "setting": "[1]", "value": 0.34, "unit": "µM"},
      {"measurement": "EC50", "setting": "SARS-CoV; [2]", "value": 9.7, "unit": "µM"}
    ]},
    {"smiles": "COc1ccc(CNC(=O)C2CCN([C@H](C)c3cccc4ccccc34)CC2)cc1", "values": [
      {"measurement": "IC50", "setting": "[1]", "value": 0.34, "unit": "µM"},
      {"measurement": "EC50", "setting": "SARS-CoV; [2]", "value": 10.2, "unit": "µM"}
    ]},
    {"smiles": "C[C@H](c1cccc2ccccc12)N1CCC(C(=O)NCc2ccc3c(c2)OCO3)CC1", "values": [
      {"measurement": "EC50", "setting": "SARS-CoV; [2]", "value": 9.1, "unit": "µM"}
    ]},
    {"smiles": "COc1ccc(CNC(=O)C2CCN(Cc3cccc4ccccc34)CC2)cc1", "values": [
      {"measurement": "IC50", "setting": "[1]", "value": 59.2, "unit": "µM"},
      {"measurement": "EC50", "setting": "SARS-CoV; vero", "value": "Not Active"}
    ]},
    {"smiles": "COc1ccccc1CNC(=O)C1CCN(Cc2cccc3ccccc23)CC1", "values": [
      {"measurement": "IC50", "setting": "[1]", "value": 116, "unit": "µM"}
    ]},
    {"smiles": "COc1cccc(CNC(=O)C2CCN(Cc3cccc4ccccc34)CC2)c1", "values": [
      {"measurement": "IC50", "setting": "[1]", "value": 30, "unit": "µM"}
    ]},
    {"smiles": "COc1cccc(CNC(=O)C2CCN([C@@H](C)c3ccc4ccccc4c3)CC2)c1", "values": [
      {"measurement": "IC50", "setting": "[1]", "value": 5.8, "unit": "µM"},
      {"measurement": "EC50", "setting": "SARS-CoV; [2]", "value": "> 25", "unit": "µM"}
    ]},
    {"smiles": "COc1cccc(CNC(=O)C2CCN([C@H](C)c3ccc4ccccc4c3)CC2)c1", "values": [
      {"measurement": "IC50", "setting": "[1]", "value": 13.2, "unit": "µM"}
    ]},
    {"smiles": "COc1ccccc1CNC(=O)C1CCN([C@H](C)c2ccc3ccccc3c2)CC1", "values": [
      {"measurement": "IC50", "setting": "[1]", "value": 34.8, "unit": "µM"}
    ]},
    {"smiles": "COc1ccc(CNC(=O)C2CCN(C(C)c3ccc4ccccc4c3)CC2)cc1", "note": "(racemic)", "values": [
      {"measurement": "IC50", "setting": "[1]", "value": "> 100", "unit": "µM"}
    ]}
  ]
}
